Data: US6635641B2 (Agouron Pharmaceuticals, Inc., priority 2000, dated 2003)
Counter-ions that a name gives are not always drawn. Like-named read-outs stand apart in the source and are kept apart here.

Legend:
[1] = test system: human umbilical vein endothelial cells (HUVEC); test: HUVEC proliferation assay (VEGF-stimulated, MTT); format: cell-based
Experimental: This assay determines the ability of a test compound to inhibit the growth factor-stimulated proliferation of human umbilical vein endothelial cells (“HUVEC”). HUVEC cells (passage 3-4, Clonetics, Corp.) were thawed into EGM2 culture medium (Clonetics Corp) in T75 flasks. Fresh EGM2 medium was added to the flasks 24 hours later. Four or five days later, cells were exposed to another culture medium (F12K medium supplemented with 10% fetal bovine serum (FBS), 60 μg/ml endothelial cell growth supplement (ECGS), and 0.1 mg/ml heparin). Exponentially-growing HUVEC cells were used in experiments thereafter. Ten to twelve thousand HUVEC cells were plated in 96-well dishes in 100 μl of rich, culture medium (described above). The cells were allowed to attach for 24 hours in this medium. The medium was then removed by aspiration and 105 μl of starvation media (F12K+1% FBS) was added to each well. After 24 hours, 15 μl of test agent dissolved in 1% DMSO in starvation medium or this vehicle alone was added into each treatment well; the final DMSO concentration was 0.1%. One hour later, 30 μl of VEGF (30 ng/ml) in starvation media was added to all wells except those containing untreated controls; the final VEGF concentration was 6 ng/ml. Cellular proliferation was quantified 72 hours later by MTT dye reduction, at which time cells were exposed for 4 hours MTT (Promega Corp.). Dye reduction was stopped by addition of a stop solution (Promega Corp.) and absorbance at 595 λ was determined on a 96-well spectrophotometer plate reader.

[2] = target: T1, unphosphorylated VEGF-R2Δ50 (FLVK) (Homo sapiens, UniProt P35968, DEL940-989/E990V); test: VEGF-R2 coupled spectrophotometric assay, unphosphorylated construct (FLVK); format: biochemical;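 also: Baculovirus-expressed cytosolic kinase domain, ADP formation linked via pyruvate kinase and lactate dehydrogenase to NADH oxidation, read as falling absorbance at 340 nm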
T1 construct: VEGF-R2Δ50 contains residues 806-939 and 990-1171; made in house; host or cells: baculovirus/insect cells

[3] = test system: lung cancer cells (line MV522); test: Cancer cell proliferation (MV522) assay (MTT); format: cell-based
Experimental: The protocol for assessing cellular proliferation in cancer cells is similar to that used for assessments in HUVEC cells. Two thousand lung cancer cells (line MV522, acquired from American Tissue Cultural Collection) were seeded in growth media (RPMI1640 medium supplemented with 2 mM glutamine and 10% FBS). Cells are allowed to attach for 1 day prior to addition of test agents and/or vehicles. Cells are treated simultaneously with the same test agents used in the HUVEC assay. Cellular proliferation is quantified by MTT dye reduction assay 72 hours after exposure to test agents. The total length of the assay is 4 days vs. 5 for HUVEC cells because MV522 cells are not exposed to starvation medium.

[4] = target: T2, phosphorylated VEGF-R2Δ50 (FLVK-P) (Homo sapiens, UniProt P35968, DEL940-989/E990V); test: VEGF-R2 coupled spectrophotometric assay, phosphorylated construct (FLVK-P); format: biochemical
T2 construct: VEGF-R2Δ50 contains residues 806-939 and 990-1171; made in house; host or cells: baculovirus/insect cells
Text: A construct (VEGF-R2Δ50) of the cytosolic domain of human vascular endothelial growth factor receptor 2 (VEGF-R2) lacking the 50 central residues of the 68 residues of the kinase insert domain was expressed in a baculovirus/insect cell system. Of the 1356 residues of full-length VEGF-R2, VEGF-R2Δ50 contains residues 806-939 and 990-1171, and also one point mutation (E990V) within the kinase insert domain relative to wild-type VEGF-R2. See commonly assigned, co-pending U.S. patent application Ser. No. 09/390,326, filed Sep. 7, 1999, incorporated by reference herein, for discussion of VEGF constructs and expression systems. Autophosphorylation of the purified construct was performed by incubation of the enzyme at a concentration of 4 μM in the presence of 3 mM ATP and 40 mM MgCl2 in 100 mM Hepes, pH 7.5, containing 5% glycerol and 5 mM DTT, at 4° C. for 2 h. […] See Parast et al., Biochemistry, 37, 16788-16801 (1998).
The production of ADP from ATP that accompanies phosphoryl transfer was coupled to oxidation of NADH using phosphoenolpyruvate (PEP) and a system having pyruvate kinase (PK) and lactic dehydrogenase (LDH). The oxidation of NADH was monitored by following the decrease of absorbance at 340 nm (e340=6.22 cm^−1 mM^−1) using a Beckman DU 650 spectrophotometer. Assay conditions for phosphorylated VEGF-R2Δ50 (indicated as FLVK-P in the tables below) were the following: 1 mM PEP; 250 μM NADH; 50 units of LDH/mL; 20 units of PK/mL; 5 mM DTT; 5.1 mM poly(E4Y1); 1 mM ATP; and 25 mM MgCl2 in 200 mM Hepes, pH 7.5. Assay conditions for unphosphorylated VEGF-R2Δ50 (indicated as FLVK in the tables) were the following: 1 mM PEP; 250 μM NADH; 50 units of LDH/mL; 20 units of PK/mL; 5 mM DTT; 20 mM poly(E4Y1); 3 mM ATP; and 60 mM MgCl2 and 2 mM MnCl2 in 200 mM Hepes, pH 7.5. Assays were initiated with 5 to 40 nM of enzyme. Ki values were determined by measuring enzyme activity in the presence of varying concentrations of test compounds. The data were analyzed using Enzyme Kinetic and Kaleidagraph software.

[5] = unphosphorylated VEGF-R2 construct
[6] = Homo sapiens, HUVEC, read-out: HUVEC IC50
[7] = Homo sapiens, HUVEC proliferation with albumin, read-out: Huvec + Albumin IC50

T2 sequence (P35968 with tags, fused parts or gaps DEL940-989/E990V limits assumed): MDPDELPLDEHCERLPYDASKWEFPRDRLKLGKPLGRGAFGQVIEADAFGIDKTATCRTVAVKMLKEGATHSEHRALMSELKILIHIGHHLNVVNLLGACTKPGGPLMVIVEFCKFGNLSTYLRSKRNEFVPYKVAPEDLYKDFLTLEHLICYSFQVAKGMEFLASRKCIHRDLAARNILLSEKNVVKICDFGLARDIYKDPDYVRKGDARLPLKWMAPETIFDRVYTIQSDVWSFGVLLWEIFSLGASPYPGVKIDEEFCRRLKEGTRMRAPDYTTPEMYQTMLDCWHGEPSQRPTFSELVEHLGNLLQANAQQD
T1 sequence (P35968 with tags, fused parts or gaps DEL940-989/E990V limits assumed): as above

Ki [2] [nM]	Ki [4] [nM]	IC50 ([3]; MV522) [nM]	SMILES	IC50 [1, 6] [nM]	also measured
			CC(C)(C)c1cc(C(=O)Nc2cccc(OCc3cncc4ccccc34)c2)ccc1O [Example X-5, 3-t-Butyl-4-hydroxy-N-[3-(isoquinolin-4-ylmethoxy)-phenyl]-benzamide]		IC50 ([1]; Homo sapiens, VEGF-stimulated HUVEC proliferation, read-out: HUVEC IC50): 29 nM; Ki [2, 5]: 1.3 nM; IC50 ([3]; MV522 lung cancer cells): 3700 nM
0.76	8.7		Cc1cc(NC(=O)c2cccc(CCc3cncc4ccccc34)c2)ccc1C(C)C [Example S-3, N-(4-Isopropyl-3-methyl-phenyl)-3-(2-isoquinolin-4-yl-ethyl)-benzamide]	180	
	28	> 10000	Cc1cc(NC(=O)c2cccc(SCc3cnccn3)c2)ccc1C(C)C [Example D-1, N-(4-Isopropyl-3-methylphenyl)-3-[(pyrazin-2-yl)methylsulfanyl]benzamide]	520	
			O=C(Nc1ccc(N2CCNCC2)c(C(F)(F)F)c1)c1ccc(F)c(CCc2cnc3[nH]cnc3c2)c1 [DD-1, 4-Fluoro-3-[2-(3H-imidazo[4,5-b]pyridin-6-yl)-ethyl]-N-(4-piperazin-1-yl-3-trifluoromethyl-phenyl)-benzamide dihydrochloride]		IC50 [1, 7]: 700 nM; Ki [2, 5]: 5.6 nM
	64	> 10000	CSc1cc(C)nc2ccc(NC(=O)c3cccc(OCc4cncc5ccccc45)c3)cc12 [Example K-4, 3-(Isoquinolin-4-yl)methoxy-N-(2-methyl-4-methylsulfanyl-quinolin-6-yl)-benzamide hydrochloride]	380	
10	109		Cc1ccc2cc(NC(=O)c3cccc(OCc4cccnc4)c3)ccc2n1 [Example K-9, N-(2-Methyl-quinolin-6-yl)-3-(pyridin-3-yl)methoxy-benzamide]		
5.5		< 3000	O=C(Nc1ccc2c(c1)CCCN2)c1ccc(F)c(OCc2cncc3ccccc23)c1 [Example O-1, 4-Fluoro-N-(1,2,3,4-tetrahydroquinolin-6-yl)-3-(isoquinolin-4-ylmethoxy)-benzamide bistrifluoroacetic acid salt]	> 300	
1.7	11.2	10000	Cc1cc(C)c2cc(NC(=O)c3cccc(OCc4cncc5ccccc45)c3)ccc2n1 [Example R-5, N-(2,4-Dimethylquinolin-6-yl)-3-(isoquinolin-4-ylmethoxy)-benzamide]	89	
	15.7	> 10000	CC(C)c1cccc(NC(=O)c2cccc(CSc3ncnc4[nH]ncc34)c2)c1 [Example B-15, 3-[(1H-Pyrazolo[3,4-d]pyrimidin-4-yl)sulfanylmethyl]-N(3-isopropylphenyl)-benzamide]	120	
1.9	3.36	> 10000	Cc1c(Br)cc(NC(=O)c2cccc(CSc3cnccn3)c2)cc1Br [Example A-8, N-(3,5-Dibromo-4-methylphenyl)-3-[(pyrazin-2-yl)sulfanylmethyl]benzamide]	740	
	6.95	> 10000	O=C(Nc1cc(C(F)(F)F)cc(C(F)(F)F)c1)c1cccc(CSc2ncnc3[nH]ncc23)c1 [Example B-17, 3-[(1H-Pyrazolo[3,4-d]pyrimidin-4-yl)sulfanylmethyl]-N(3,5-bis-trifluoromethylphenyl)-benzamide]	> 700	
	13	10000	O=C(Nc1cccc(CSc2ncnc3[nH]ncc23)c1)c1cc(C(F)(F)F)cc(C(F)(F)F)c1 [Example V-2]	180	
	2.53	430	Cc1c(Br)cc(NC(=O)c2cccc(OCc3cncc4ccccc34)c2)cc1Br [Example R-2, N-(3,5-Dibromo-4-methyl-phenyl)-3-(isoquinolin-4-ylmethoxy)-benzamide]	110	
	8.84	> 10000	COc1cc(/C=C/c2cc(CNc3cccc(C(=O)Nc4ccc(C(C)C)c(C)c4)c3)[nH]n2)ccc1O [Example I-1, 3-[({3-[(E)-2-(4-hydroxy-3-methoxyphenyl)ethenyl]-1H-pyrazol-5-yl}methyl)amino]-N-(3-methyl-4-isopropylphenyl)benzamide]	220	
		9700	CC1(C)CCC(C)(C)c2cc(NC(=O)c3cccc(OCc4cncc5ccccc45)c3)ccc21 [Example R-3, 3-(Isoquinolin-4-ylmethoxy)-N-(5,5,8,8-tetramethyl-5,6,7,8-tetrahydronaphthalen-2-yl)-benzamide]	50	inhibition at 5 µM ([4]; @ 5 μM, read-out: FLVK-P percent inhibition): 67%
	5.84		CC(C)(C)c1cccc(NC(=O)c2cccc(CSc3ncnc4[nH]ncc34)c2)c1 [Example B-18, 3-[(1H-Pyrazolo[3,4-d]pyrimidin-4-yl)sulfanylmethyl]-N(3-t-butylpheny)-benzamide]		IC50 ([1]; read-out: HUVEC IC50): 130 nM; IC50 [3]: > 10000 nM
			Nc1ccc(CCc2cccc(C(=O)Nc3ccc(N4CCNCC4)c(C(F)(F)F)c3)c2)cn1 [AA-2, 3-[2-(6-Amino-pyridin-3-yl)-ethyl]-N-(4-piperazin-1-yl-3-trifluoromethyl-phenyl)-benzamide dihydrochloride]		IC50 [1, 7]: 80 nM; Ki [2, 5]: 25 nM

SMILES	Ki [2] [nM]	Ki [4] [nM]	IC50 ([3]; MV522) [nM]	IC50 [1, 6] [nM]	also measured
COc1cc(/C=C/c2cc(CSc3cccc(C(=O)Nc4ccc5nc(C)ccc5c4)c3)[nH]n2)ccc1O [Example F-1, 3-[{5-((E)-2-(4-Hydroxy-3-methoxyphenyl)ethenyl)-2H-pyrazol-3-yl}methylsulfanyl]-N-(2-methylquinolin-6-yl)benzamide]		2.36	> 10000	710	
O=C(Nc1ccc(N2CCNCC2)c(C(F)(F)F)c1)c1ccc(F)c(OCc2cncc(Br)c2)c1 [Example R-25, 3-(5-Bromo-pyridin-3-ylmethoxy)-4-fluoro-N-(4-piperazin-1-yl-3-trifluoromethyl-phenyl)-benzamide]	6.6				IC50 ([1]; Homo sapiens, HUVEC, with albumin, read-out: Huvec + Albumin IC50): 155 nM
N#Cc1ccc(NC(=O)c2cccc(CSc3ncnc4[nH]ncc34)c2)cc1C(F)(F)F [Example B-12, N-[4-cyano-3-(trifluoromethyl)phenyl]-3-[(1H-pyrazolo[3,4-d]pyrimidin-4-yl-sulfanyl)methyl]benzamide]		28	> 10000	530	
